# According to ChEMBL document CHEMBL3046914, “Synthesis and anticancer effects of pongamol derivatives on mitogen signaling and cell cycle kinases” (Med Chem Res, 2012):
# The source made the active and inactive calls. The rule behind the calls is not given here.
# How the values were obtained:
# [1] = Cytotoxicity against fibroblasts
# [2] = test system: IMR-32; assay: Cell cycle arrest in Homo sapiens (human) IMR32 cells assessed as decrease of G2-M phase cell accumulation at 20 to 200 uM by FACS analysis; assay type: functional, cell-based
# [3] = test system: IMR-32; assay: Cytotoxicity against Homo sapiens (human) IMR32 cells at 20 to 200 uM after 16 hr by MTT assay; assay type: functional, cell-based
# [4] = molecular target: Cyclin-dependent kinase 2 (Homo sapiens) (UniProt P24941); assay: Destabilization of CDK2 in Homo sapiens (human) IMR32 cells by immunoblot analysis; assay type: cell-based; conditions: IMR-32
# [5] = test system: HeLa; assay: Cell cycle arrest in Homo sapiens (human) HeLa cells assessed as decrease of G1 phase cell accumulation at 20 to 200 uM by FACS analysis; assay type: functional, cell-based
# [6] = test system: HeLa; assay: Cell cycle arrest in Homo sapiens (human) HeLa cells assessed as decrease of G2-M phase cell accumulation at 20 to 200 uM by FACS analysis; assay type: functional, cell-based
# [7] = test system: IMR-32; assay: (§1) Cytotoxicity against Homo sapiens (human) IMR32 cells after 16 hr by MTT assay; assay type: functional
# [8] = test system: IMR-32; assay: as §1; assay type: functional, cell-based
# [9] = test system: Jurkat; assay: Cell cycle arrest in Homo sapiens (human) Jurkat cells assessed as decrease of G1 phase cell accumulation at 20 to 200 uM by FACS analysis; assay type: functional, cell-based
# [10] = test system: IMR-32; assay: Cell cycle arrest in Homo sapiens (human) IMR32 cells assessed as decrease of G1 phase cell accumulation at 20 to 200 uM by FACS analysis; assay type: functional, cell-based
# [11] = test system: Jurkat; assay: Cytotoxicity against Homo sapiens (human) Jurkat cells after 16 hr by MTT assay; assay type: functional
# [12] = test system: Jurkat; assay: Cell cycle arrest in Homo sapiens (human) Jurkat cells assessed as decrease of G2-M phase cell accumulation at 20 to 200 uM by FACS analysis; assay type: functional, cell-based
# [13] = test system: HeLa; assay: Cytotoxicity against Homo sapiens (human) HeLa cells after 16 hr by MTT assay; assay type: functional
# [14] = molecular target: Cyclin-dependent kinase 2 (Homo sapiens) (UniProt P24941); assay: Destabilization of CDK2 in Homo sapiens (human) Jurkat cells by immunoblot analysis; assay type: cell-based
# [15] = molecular target: Mitogen-activated protein kinase 3 (Homo sapiens) (UniProt P27361); assay: Destabilization of ERK1 in Homo sapiens (human) HeLa cells by immunoblot analysis; assay type: cell-based
# Mitogen-activated protein kinase 3 (Homo sapiens), sequence (P27361 whole entry): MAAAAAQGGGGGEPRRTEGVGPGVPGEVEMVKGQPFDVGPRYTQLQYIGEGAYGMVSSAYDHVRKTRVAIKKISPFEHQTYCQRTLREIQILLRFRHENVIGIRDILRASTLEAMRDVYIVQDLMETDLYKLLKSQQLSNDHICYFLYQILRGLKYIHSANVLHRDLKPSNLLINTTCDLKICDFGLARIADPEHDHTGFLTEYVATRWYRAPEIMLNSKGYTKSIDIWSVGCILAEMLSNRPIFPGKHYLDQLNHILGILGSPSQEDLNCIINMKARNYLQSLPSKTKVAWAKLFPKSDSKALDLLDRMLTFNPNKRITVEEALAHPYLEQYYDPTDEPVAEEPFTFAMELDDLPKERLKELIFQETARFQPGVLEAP
# [16] = molecular target: Cyclin-dependent kinase 2 (Homo sapiens) (UniProt P24941); assay: Destabilization of CDK2 in Homo sapiens (human) HeLa cells by immunoblot analysis; assay type: cell-based
# [17] = species: Homo sapiens; assay: Inhibition of tyrosine kinase (unknown origin)
# [18] = test system: IMR-32; assay: Cytotoxicity against Homo sapiens (human) IMR32 cells at 200 uM after 16 hr by MTT assay; assay type: functional
# [19] = test system: HeLa; assay: Induction of endoplasmic reticulum stress in Homo sapiens (human) HeLa cells assessed as Grp94 expression by immunoblot analysis; assay type: functional, cell-based
# [20] = test system: IMR-32; assay: Induction of endoplasmic reticulum stress in Homo sapiens (human) IMR32 cells assessed as Grp94 expression by immunoblot analysis; assay type: functional, cell-based
# [21] = test system: Jurkat; assay: Induction of endoplasmic reticulum stress in Homo sapiens (human) Jurkat cells assessed as Grp94 expression by immunoblot analysis; assay type: functional, cell-based
# [22] = molecular target: Mitogen-activated protein kinase 3 (Homo sapiens) (UniProt P27361); assay: Destabilization of ERK1 in Homo sapiens (human) IMR32 cells by immunoblot analysis; assay type: cell-based; conditions: IMR-32
# [23] = molecular target: Mitogen-activated protein kinase 3 (Homo sapiens) (UniProt P27361); assay: Destabilization of ERK1 in Homo sapiens (human) Jurkat cells by immunoblot analysis; assay type: cell-based
inhibition [17],SMILES,Activity [1],Activity [2],Activity [3],Activity [5],Activity [6],Activity [7] [%],Activity [8],Activity [9],Activity [10],Activity [11] [%],Activity [12],Activity [13] [%],further results
,COc1c(-c2cc(-c3ccccc3)n(-c3ccc(Cl)cc3Cl)n2)ccc2occc12,Non-toxic,inactive,inactive,,,,,,,,,,
inactive,COc1c(-c2cc(-c3ccccc3)n(-c3ccccc3F)n2)ccc2occc12,Non-toxic,inactive,,Active,Active,71,Dose-dependent effect,Active,Active,45,Active,35,Activity [4]: Active; Activity [14]: Active; Activity [15]: Active; Activity [16]: Active; Activity [18]: 60%
,COc1c(-c2cc(-c3ccccc3)n(-c3ccc(F)cc3)n2)ccc2occc12,Non-toxic,inactive,,,,,Dose-dependent effect,,,,,,
,COc1c(-c2cc(-c3ccccc3)n(-c3ccccc3)n2)ccc2occc12,Non-toxic,inactive,inactive,,,,,,,,,,
inactive,COc1c(C(=O)/C=C(\O)c2ccccc2)ccc2occc12 [PONGAMOL],Non-toxic,Active,inactive,Active,Active,38,,Active,,17,Active,23,Activity [19]: Active; Activity [20]: Active; Activity [21]: Active
,COc1c(-c2cc(-c3ccccc3)[nH]n2)ccc2occc12,Non-toxic,inactive,,,,,Dose-dependent effect,,,,,,
,COc1c(-c2cc(-c3ccccc3)n(-c3ccccc3C)n2)ccc2occc12,Non-toxic,inactive,,,,,Dose-dependent effect,,Active,,,,
inactive,COc1c(-c2cc(-c3ccccc3)n(-c3cccc(F)c3)n2)ccc2occc12,Non-toxic,Active,,Active,Active,86,Dose-dependent effect,Active,Active,35,Active,28,Activity [4]: Active; Activity [22]: Active; Activity [14]: Active; Activity [19]: Active; Activity [16]: Active; Activity [18]: 60%; Activity [20]: Active; Activity [21]: Active
,COc1ccc(-n2nc(-c3ccc4occc4c3OC)cc2-c2ccccc2)cc1,Non-toxic,inactive,inactive,,,,,,,,,,
,COc1c(-c2cc(-c3ccccc3)n(-c3ccc([N+](=O)[O-])cc3[N+](=O)[O-])n2)ccc2occc12,Non-toxic,inactive,,,,,Dose-dependent effect,,,,,,
,COc1c(-c2cc(-c3ccccc3)n(-c3cccc([N+](=O)[O-])c3)n2)ccc2occc12,Non-toxic,inactive,,,,,Dose-dependent effect,,,,,,
inactive,COc1c(-c2cc(-c3ccccc3)on2)ccc2occc12,Non-toxic,Active,,Active,Active,58,Dose-dependent effect,Active,Active,31,Active,26,Activity [4]: Active; Activity [22]: Active; Activity [14]: Active; Activity [15]: Active; Activity [23]: Active; Activity [16]: Active; Activity [18]: 60%
,COc1c(-c2cc(-c3ccccc3)n(-c3ccc(C)cc3C)n2)ccc2occc12,Non-toxic,inactive,inactive,,,,,,,,,,
